As usually defined, the Ki is a dissociation constant, usually derived from enzyme kinetics or from competition with a known ligand. In general, EC50 refers to the concentration that produces a half-maximal response.

The text below walks through data of US9339486B2, “Heterocyclic modulators of cannabinoid receptors” (THE CLEVELAND CLINIC FOUNDATION, priority 2008, dated 2016).

Each structure is given as a SMILES string.

One data set has as its target CB2 (Homo sapiens (Human), UniProt P34972). Briefly: Radioligand competition binding, CHO-K1 membranes, [3H]CP 55,940. Particulars: 1 nM [3H]CP 55,940, read-out: Mean Ki (nM) hCB2. The procedure:
Mukherjee, S., et al., Species Comparison and Pharmacological Characterization of Rat and Human CB2 Cannabinoid Receptors, Eur J Pharmacol, 2004, 505:1-9. […] IC50 were determined by non-linear regression using one site competition equation. The inhibition constants (Ki) were calculated using the Cheng Prusoff equation (Ki=IC50/(1+(L/KD)), where L=concentration of radioligand in the assay, and KD=affinity of the radioligand for the receptor).
For orientation: Displacement assays read how much labelled ligand stays bound in the presence of the test substance.

Data set [1] concerns the target hCB1 (human CB1) receptors (Homo sapiens (Human), UniProt P21554). The data set can be described thus: GTPγ[35S] functional assay, CHO membrane extracts hCB1. The format is biochemical. The procedure: Functional activity was evaluated using GTPγ[^35S] assay in CHO membrane extracts expressing recombinant hCB1 (human CB1) receptors or hCB2 (human CB2) receptors. The assay relies on the binding of GTPγ[^35S], a radiolabeled nonhydrolyzable GTP analogue, to the G protein upon binding of an agonist of the G-protein-coupled receptor. In this system, agonists stimulate GTPγ[^35S] binding whereas neutral antagonist have no effect and inverse agonists decrease GTPγ[^35S] basal binding.
The compound of Example 3 was solubilized in 100% DMSO at a concentration of 10 mM within 4 hours of the first testing session (master solution). A predilution for the dose response curve was performed in 100% DMSO and then diluted 100 fold in assay buffer at a concentration 2 fold higher than the concentration to be tested. […] For GTPγS membranes were mixed with GDP diluted in assay buffer to give 30 μM solution (volume:volume) and incubated for at least […] on ice. In parallel, GTPγ[^35S] (GE Healthcare, Catalogue number SJ1308) were mixed with the beads (PVT-WGA (GE Healthcare, RPNQ001)), diluted in assay buffer at 50 mg/ml (0.5 mg/10 μl) (volume:volume) just before starting the reaction. […] Then the plates were centrifuged for 10 min at 2000 rpm and counted for 1 min/well with a PerkinElmer TopCount reader. […]

Another data set deals with rat CB1 (rCB1) (Rattus norvegicus (Rat), UniProt P20272). The data set can be described thus: cAMP activation assay rCB1. Format: cell-based. As for the experimental part: The test was performed in 96 well plates. For testing, 12 μl of cells (2×10^3 cells/well) were mixed with 12 μl of agonist at increasing concentrations. […] The plates were then incubated for 30 min at room temperature. After addition of the lysis buffer, cAMP concentrations were estimated, according to the manufacturer specification, with the HTRF kit from Cis-Bio International (Catalogue number 62AM2PEB).

The subject of the next data set is nerve-ligation model. The data set can be described thus: Assessment of mechanical allodynia in rats, L5/6 spinal-nerve ligation, von Frey (IP or IT). The format is in vivo, rat. The procedure:
All experiments were performed on male Sprague-Dawley rats (200-250 g). Rats were housed individually in plastic cages with soft bedding at room temperature and maintained on a 12-hour light-dark cycle with free access to food and water.
Neuropathic pain was induced following the methods of Kim and Chung. Kim S H, Chung J M. An experimental model for peripheral neuropathy produced by segmental spinal nerve ligation in the rat. Pain 1992; 50:355-63. Rats were anesthetized and placed prone under a microsurgical apparatus. A midline incision was made on the back, and the right paraspinal muscles were separated from the spinous processes at the L4-S2 levels. The L6 transverse process was carefully removed, and the L4/5 spinal nerves were identified. The L5 nerve was tightly ligated with a 6-0 silk suture. The right L6 spinal nerve was then located just caudal and medial to the sacroiliac junction and tightly ligated with a silk suture.
Two weeks later after spinal nerve ligation, Intrathecal catheters (PE-10 tubing) was inserted into the rats while they were anesthetized with isoflurane, as described by Yaksh and Rudy. Yaksh T L, Rudy T A. Chronic catheterization of the spinal subarachnoid space. Physiology & Behavior 1976; 17:1031-6. A midline incision was made on the back of the neck. The muscle was freed at the attachment to the skull exposing the cisternal membrane. The membrane was opened with a stab blade and an 8.5 cm polyethylene (PE-10) catheter was then inserted through the cisternal opening, and passed carefully and caudally into the intrathecal space at the L1-L3 spinal segments. The end of the catheter was tunneled through the subcutaneous space over the frontal bones, flushed with 10 μl saline, and then plugged with a short length of wire. Animal testing was performed 5-7 days after intrathecal catheter placement.
To assess mechanical allodynia, the mechanical paw withdrawal threshold was measured with a series of von Frey hairs (range 0.4-15 g). Rats were placed in elevated Perspex enclosures (28 cm×15 cm×18 cm) with wire mesh bases and given 15-20 min to acclimatize to the testing environment. Rats will be allowed to acclimatize for 30 min in a clear plastic cage with a wire mesh bottom. The calibrated von Frey filament fibers were applied to the hindpaw briefly for 6 seconds to determine the paw withdrawal threshold before and after drug injection (intraperitoneally or intrathecally). A series of von Frey filaments with exponentially incremental stiffness (0.4, 0.7, 1.2, 2.0, 3.6, 5.5, 8.5 and 15 g) were used to measure the 50% threshold for hindpaw withdrawal in awake, unrestrained rats. Chaplan S R, Bach F W, Pogrel J W, Chung J M, Yaksh T L. Quantitative assessment of tactile allodynia in the rat paw. Journal of Neuroscience Methods 1994; 53:55-63. Brisk paw withdrawal from the pressure of a filament gently bent against the plantar paw was defined as a positive response, and absence of withdrawal within 6 s as a negative response. Filaments were touched to the hindpaw in sequential ascending or descending order until the threshold of response is crossed (allowing about 10 s between each increment of the von Frey filaments). Each time the threshold is crossed, the direction of stimulus presentation was reversed and the procedure will be resumed. Four responses were collected after the first threshold detection, and the 50% withdrawal thresholds were interpolated. In cases where response thresholds fell outside the range of detection, 15.00 and 0.25 g were, respectively, assigned for continuous negative or positive responses to the limit of stimuli.
The compound of Example 3 was prepared in dimethyl sulfoxide (DMSO).

For `CC1(Cc2ccccc2)COc2cc(C(=O)N3CCCCC3)ccc21` (stereo not drawn) [Example 3, 3-benzyl-3-methyl-2,3-dihydrobenzofuran-6-carboxylic acid-piperidine amide], the Ki at CB2 worked out at 422 ± 123 nM. In data set [1], the “agonistic or antagonistic activities at hCB1 receptors” value is “did not result in any agonistic or antagonistic activities”. Further, in data set [1] (read-out: Agonist EC50 (mean ± s.e. mean) GTPγ[35S] functional assays hCB1), the EC50 was > 10 µM. Besides, the “activity at rCB1 receptors” value at rat CB1 (rCB1) is “did not exhibit any activity”. At rat CB1 (rCB1) (read-out: Agonist EC50 (mean ± s.e. mean) cAMP activation assays rCB1), the EC50 was > 10 µM. For the same molecule, in the data set on nerve-ligation model (IP 30 mg/kg), the “mechanical paw withdrawal threshold maintained” value stood at 15 g and the “time of peak effect following IP administration” value is reported as ≤ 5 min. Moreover, the “effect on mechanical paw withdrawal threshold” value in the data set with nerve-ligation model (IP 30 mg/kg in 0.5 ml) is on record as “increase in mechanical paw withdrawal threshold”. Further, the “duration of high threshold” value with nerve-ligation model (IP 30 mg/kg, 2-h observation period) is given as > 2 h. In the data set on nerve-ligation model (IT administration), the “behavioral abnormalities or side effects” value is “No behavioral abnormalities or side effects were noted” and the “effect on mechanical paw withdrawal threshold” value is “increase in mechanical paw withdrawal threshold”. Also, the “duration of increase in mechanical paw withdrawal threshold” value with nerve-ligation model (IT administration, 90-min observation period) is ≥ 90 min.
